According to patent US11186589B2, “Cyanoindoline derivatives as NIK inhibitors” (Janssen Pharmaceutica NV, priority 2016, dated 2021):
Read-outs that look alike come from different tables or passages of the source.

Experiments:
NIK/MAP3K14 = NIK/MAP3K14 (Homo sapiens (Human), UniProt Q99558); experiment: Inhibition of auto-phosphorylation of recombinant human NF-kappaB-inducing kinase (NIK/MAP3K14) activity (AlphaScreen); format: biochemical; conditions: averaged values over all measurements on all batches, 25 microM ATP
Description: Inhibition of Auto-Phosphorylation of Recombinant Human NF-kappaB-Inducing Kinase ([…]) Activity (AlphaScreen®)
NIK/MAP3K14 auto-phosphorylation activity was measured using the AlphaScreen® (αscreen) format (Perkin Elmer). All compounds tested were dissolved in dimethyl sulfoxide (DMSO) and further dilutions were made in assay buffer. Final DMSO concentration was […] in assays. Assay buffer was 50 mM Tris pH 7.5 containing 1 mM EGTA (ethylene glycol tetraacetic acid), 1 mM DTT (dithiothreitol), 0.1 mM Na3VO4, 5 mM MgCl2, 0.01% Tween® 20. Assays were carried out in 384 well Alphaplates (Perkin Elmer). Incubations consisted of compound, 25 microM Adenosine-5′-triphosphate (ATP), and 0.2 nM NIK/MAP3K14. Incubations were initiated by addition of GST-tagged NIK/MAP3K14 enzyme, carried out for 1 h at 25° C. and terminated by addition of stop buffer containing anti-phospho-[…] Ser176/180 antibody. Protein A Acceptor and Glutathione-Donor beads were added before reading using an EnVision® Multilabel Plate Reader (Perkin Elmer). Signal obtained in the wells containing blank samples was subtracted from all other wells and IC50's were determined by fitting a sigmoidal curve to % inhibition of control versus Log10 compound concentration.

[1] = test system: P-IKKα levels in L363 cells; experiment: Effect of compounds on P-IKKα levels in L363 (NIK translocated multiple myeloma) cells; format: cell-based, human; conditions: 2 hr treatment, averaged values, read-out: Inhibition of pIKKα_L-363 (IC50 (nM))
Description: Effect of Compounds on P-IKKα Levels in L363 (NIK Translocated Multiple Myeloma) Cells
All compounds tested were dissolved in DMSO and further dilutions were made in culture medium. Final DMSO concentration was 1% (v/v) in cell assays. The human L363 cells (ATCC) were cultured in RPMI 1640 medium supplemented with GlutaMax and 10% fetal calf serum (PAA). Cells were routinely maintained at densities of 0.2×10^6 cells per ml—1×10^6 cells per ml at 37° C. in a humidified 5% CO2 atmosphere. Cells were passaged twice a week splitting back to obtain the low density. Cells were seeded in 96 well plates (Nunc 167008) at 2×10^6 per ml media in a volume of 75 μl per well plus 25 μl 1 μg/ml recombinant human B-cell activating factor (BAFF/BLyS/TNFSF13B). Seeded cells were incubated at 37° C. in a humidified 5% CO2 atmosphere for 24 hr. Drugs and/or solvents were added (20 μl) to a final volume of 120 μl. Following 2 hr treatment plates were removed from the incubator and cell lysis was achieved by the addition of 30 μl 5× lysis buffer followed by shaking on a plate shaker at 4° C. for 10 min. At the end of this incubation lysed cells were centrifuged at 800×g for 20 min at 4° C. and the lysate was assessed for P-IKKα levels by sandwich immuno-assay carried out in anti-rabbit antibody coated Mesoscale plates. Within an experiment, the results for each treatment were the mean of 2 replicate wells. For initial screening purposes, compounds were tested using an 8 point dilution curve (serial 1:3 dilutions). For each experiment, controls (containing MG132 and BAFF but no test drug) and a blank incubation (containing MG132 and BAFF and 10 μM ADS125117, a test concentration known to give full inhibition) were run in parallel. The blank incubation value was subtracted from all control and sample values. To determine the IC50 a sigmoidal curve was fitted to the plot of % inhibition of control P-IKKα levels versus Log10 compound concentration.

JJN-3 cells = experiment: Antiproliferative activity on JJN-3 (NIK translocated) multiple myeloma cells (CellTiter-Glo); format: cell-based, human; conditions: JJN-3 (NIK translocated) cells, 96 hr treatment, averaged values, read-out: JJN-3 Proliferation inhibition (IC50 (nM))
Description: (§1) Determination of Antiproliferative Activity on JJN-3 (NIK Translocated) and KMS12-BM (NIK WT) Multiple Myeloma Cells
(§2) All compounds tested were dissolved in DMSO and further dilutions were made in culture medium. Final DMSO concentration was 0.3% (v/v) in cell proliferation assays. Viability was assessed using CellTiter-Glo cell viability assay kit (Promega). The human JJN-3 and KMS12-BM cells (DSMZ) were cultured in RPMI 1640 medium supplemented with 2 mM L-glutamine, and 10% fetal calf serum (PAA). Cells were routinely kept as suspension cells at 37° C. in a humidified 5% CO2 atmosphere. Cells were passaged at a seeding density of 0.2×10^6/ml twice a week. Cells were seeded in black tissue culture treated 96-well plates (Perkin Elmer). Densities used for plating ranged from 15000 (JJN3) to 20000 (KMS12BM) cells per well in a total volume of […]. Drugs and/or solvents were added (15 μl) to a final volume of 150 μl. Following 96 hr of treatment, plates were removed from the incubator and allowed to equilibrate to room temperature for approx 10 min. 75 μl CellTiter-Glo reagent was added to each well that was then covered (Perkin Elmer Topseal) and shaken on plate shaker for 10 min. Luminescence was measured on a HTS Topcount (Perkin Elmer). Within an experiment, the results for each treatment were the mean of 2 replicate wells. For initial screening purposes, compounds were tested using a 9 point dilution curve (serial 1:3 dilutions). For each experiment, controls (containing no drug) and a blank incubation (containing cells read at the time of compound addition) were run in parallel. The blank value was subtracted from all control and sample values. For each sample, the mean value for cell growth (in relative light units) was expressed as a percentage of the mean value for cell growth of the control.

KMS12-BM cells = experiment: Antiproliferative activity on KMS12-BM (NIK WT) multiple myeloma cells (CellTiter-Glo); format: cell-based, human; conditions: 96 hr treatment, averaged values, read-out: KMS-12 Proliferation inhibition (IC50 (nM))
Description: as §1, §2

NIK/MAP3K14, sequence (Q99558 whole entry): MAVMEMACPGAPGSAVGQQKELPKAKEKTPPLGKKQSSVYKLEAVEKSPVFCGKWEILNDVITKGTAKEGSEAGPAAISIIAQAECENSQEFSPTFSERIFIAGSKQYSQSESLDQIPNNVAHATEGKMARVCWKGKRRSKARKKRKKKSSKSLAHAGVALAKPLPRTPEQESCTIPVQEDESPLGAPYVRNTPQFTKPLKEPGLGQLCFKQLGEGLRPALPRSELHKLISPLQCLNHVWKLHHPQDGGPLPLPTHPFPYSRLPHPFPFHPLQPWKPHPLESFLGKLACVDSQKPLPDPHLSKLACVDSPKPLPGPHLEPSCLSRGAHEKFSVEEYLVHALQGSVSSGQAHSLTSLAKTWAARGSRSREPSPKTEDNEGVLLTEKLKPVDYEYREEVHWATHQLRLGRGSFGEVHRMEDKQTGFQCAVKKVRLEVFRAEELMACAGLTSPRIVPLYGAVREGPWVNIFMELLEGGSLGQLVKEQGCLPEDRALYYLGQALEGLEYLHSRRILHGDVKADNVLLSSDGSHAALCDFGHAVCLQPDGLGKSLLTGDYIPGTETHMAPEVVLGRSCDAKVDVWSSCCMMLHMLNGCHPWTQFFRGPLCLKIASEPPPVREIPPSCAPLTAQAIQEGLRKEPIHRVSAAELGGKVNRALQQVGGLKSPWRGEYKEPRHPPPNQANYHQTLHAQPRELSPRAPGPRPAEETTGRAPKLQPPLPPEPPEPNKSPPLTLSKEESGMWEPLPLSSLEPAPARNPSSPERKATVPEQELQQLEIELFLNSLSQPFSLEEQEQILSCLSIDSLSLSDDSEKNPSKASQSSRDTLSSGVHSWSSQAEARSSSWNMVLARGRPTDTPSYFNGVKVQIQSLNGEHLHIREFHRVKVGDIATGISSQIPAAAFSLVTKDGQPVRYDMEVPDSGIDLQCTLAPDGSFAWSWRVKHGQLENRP

| IC50 (NIK/MAP3K14) [nM] | IC50 ([1]; Homo sapiens, L-363, 2 h) [nM] | IC50 (JJN-3 cells; Homo sapiens, JJN-3, 96 h) [nM] | IC50 (KMS12-BM cells; Homo sapiens, KMS-12-BM, 96 h) [nM] | IC50 [1] [nM] | IC50 (KMS12-BM cells) [nM] | IC50 (JJN-3 cells) [nM] | SMILES |
| --- | --- | --- | --- | --- | --- | --- | --- |
| 5.1 | 501 | 692 | ~525 |  |  |  | CN1CCc2cc(CCC3CC3)c(Nc3nccc(-c4cc(C#N)c5c(c4)[C@@](C)(CO)CN5)n3)cc2CC1 (mixture of isomers) [Compound 26] |
| 7.1 | ~1200 | 871 | 1380 |  |  |  | CCCCCc1cc2c(cc1Nc1nccc(-c3cc(C#N)c4c(c3)[C@@](C)(CO)CN4)n1)CCN(C)CC2 (mixture of isomers) [Compound 27] |
| 5 | 63 | ~2140 | ~7760 |  |  |  | CC1(CO)COc2c(Nc3nccc(-c4cc(C#N)c5c(c4)[C@@](C)(CO)CN5)n3)cnn2C1 (mixture of isomers) [Compound 31b] |
| 5.9 |  | 269 | 2510 | 5 |  |  | CC1CC(C)n2ncc(Nc3nccc(-c4cc(C#N)c5c(c4)C(C)(CO)CN5)n3)c2O1 (racemic) [Compound 21b] |
| 2.8 | 2 | 58 |  |  | ~2820 |  | CC1CCn2ncc(Nc3nccc(-c4cc(C#N)c5c(c4)[C@@](C)(CO)CN5)n3)c2O1 (single isomer, unassigned) [Compound 1b] |
| 2 |  |  |  | 4 | > 10000 | 93 | CC1CCn2ncc(Nc3nccc(-c4cc(C#N)c5c(c4)[C@@](C)(CO)CN5)n3)c2O1 (single isomer, unassigned) [Compound 2b] |
| 7.1 | 3 |  |  |  | > 10000 | 166 | CC(C)C1CCn2ncc(Nc3nccc(-c4cc(C#N)c5c(c4)[C@@](C)(CO)CN5)n3)c2O1 (single isomer, unassigned) [Compound 22b] |
| 6.9 |  |  |  | 2 | ~2240 | 45 | CC(C)C1CCn2ncc(Nc3nccc(-c4cc(C#N)c5c(c4)[C@@](C)(CO)CN5)n3)c2O1 (single isomer, unassigned) [Compound 23b] |
| 3.9 |  |  | > 10000 | 6 |  | 85 | CC1CCCn2ncc(Nc3nccc(-c4cc(C#N)c5c(c4)[C@@](C)(CO)CN5)n3)c2O1 (single isomer, unassigned) [Compound 29b] |
| 5.2 |  |  |  | 13 | > 10000 | 263 | CC1CCCn2ncc(Nc3nccc(-c4cc(C#N)c5c(c4)[C@@](C)(CO)CN5)n3)c2O1 (single isomer, unassigned) [Compound 30b] |
| 30.2 | 23 | 26 | 1380 |  |  |  | CNC(=O)CCn1ccc2c(Nc3nccc(-c4cc(C#N)c5c(c4)C(C)(C)CN5)n3)cc(Cl)cc21 [Compound 1c] |
| 87.1 | 78 | 123 | ~6030 |  |  |  | CC(C)(O)Cn1ccc2c(Nc3nccc(-c4cc(C#N)c5c(c4)C(C)(C)CN5)n3)cc(Cl)cc21 [Compound 2c] |
| 1 | 3 | 91 | > 10000 |  |  |  | CN1CCn2ncc(Nc3nccc(-c4cc(C#N)c5c(c4)[C@@](C)(CO)CN5)n3)c2C1=O [Compound 3b] |
|  | 72 | 537 | > 10000 |  |  |  | CC1(C)CNc2c(C#N)cc(-c3ccnc(Nc4cc(Cl)cc5[nH]ccc45)n3)cc21 [Compound 7c] |
| 1.5 | 4 | 251 | ~549 |  |  |  | C[C@]1(CO)CNc2c(C#N)cc(-c3ccnc(Nc4cnn5c4COCC5)n3)cc21 [Compound 12b] |
|  | 1 | 12 | ~468 |  |  |  | COc1nc2c(cc1Nc1nccc(-c3cc(C#N)c4c(c3)[C@@](C)(CO)CN4)n1)CCN(C)C2 [Compound 53] |
|  | 2 | ~7 | ~9 |  |  |  | CN1CCc2ncc(Nc3ncc(F)c(-c4cc(C#N)c5c(c4)[C@@](C)(CO)CN5)n3)cc2C1 [Compound 54] |
